Test results as given in US20240425478A1, “CYCLOPENTYLPYRAZOLE CDK2 INHIBITORS” (Genentech, Inc., priority 2021, published 2024).
Like-named read-outs stand apart in the source and are kept apart here.

Legend:
[1] = molecular target: T1, Cyclin Dependent Kinase 1/Cyclin A2 (CDK1-cycA2) (Homo sapiens, UniProt P06493); experiment: CDK1-cycA2 TR-FRET (Lance) enzyme assay; assay type: biochemical; settings: Table O, enzymatic assay
T1 construct: purchased ProQinase 0134-0054-1
Method in brief: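 Human CDK1/cyclin A2 pre-incubated 30 min with compound dose responses in 50 mM HEPES pH 7.5, 10 mM MgCl2, 2 mM TCEP, 0.05% BGG, 0.01% Brij 35. Reaction quenched with EDTA (15 mM final); TR-FRET readout using Eu-anti-phospho-4E-BP1, acceptor/donor ratio. Inhibition constants from Morrison equation.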

[2] = molecular target: T2, Cyclin Dependent Kinase 2/Cyclin E1 (CDK2-cycE1) (Homo sapiens, UniProt P24941); experiment: CDK2-cycE1 TR-FRET (LANCE) enzyme assay; assay type: biochemical; settings: for FS CDK1/CDK2 / FS CDK4/CDK2: fold selectivity; for increased fold-selectivity CDK4/CDK2 over Comparator C: (+) sign after FS CDK4/CDK2; for increased fold-selectivity CDK1/CDK2 over Comparator C: (+) sign after FS CDK1/CDK2;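 for improvement in potency against CDK2 (Ki) over Comparator C: fold lower CDK2 Ki than comparator c (Ki 0.032 µM)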
T2 construct: purchased ProQinase 0050-0055-1
Method in brief: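 Compound dose responses pre-incubated 30 min with CDK2-cycE1 in 50 mM HEPES pH 7.5, 10 mM MgCl2, 2 mM TCEP, 0.05% BGG, 0.01% Brij 35. Reaction quenched with EDTA (15 mM final), phospho-MBP detected by Eu-anti-phospho-MBP TR-FRET (acceptor/donor ratio). Inhibition constants from Morrison equation.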

[3] = molecular target: T3, Cyclin Dependent Kinase 4/Cyclin D3 (CDK4-cycD3) (Homo sapiens, UniProt P11802); experiment: CDK4-cycD3 TR-FRET (LANCE) enzyme assay; assay type: biochemical; settings: Table O, enzymatic assay
T3 construct: purchased Carna Biosciences 04-105
T3 sequence (P11802 whole entry): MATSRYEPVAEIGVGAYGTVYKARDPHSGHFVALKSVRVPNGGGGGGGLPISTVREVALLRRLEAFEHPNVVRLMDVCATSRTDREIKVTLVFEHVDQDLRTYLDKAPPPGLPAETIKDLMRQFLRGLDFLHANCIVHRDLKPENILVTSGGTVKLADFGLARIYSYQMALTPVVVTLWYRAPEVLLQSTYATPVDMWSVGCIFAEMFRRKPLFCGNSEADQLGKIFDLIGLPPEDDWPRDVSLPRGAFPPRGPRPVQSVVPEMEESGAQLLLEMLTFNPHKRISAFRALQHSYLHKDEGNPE
T3 sequence (P30281 whole entry partner): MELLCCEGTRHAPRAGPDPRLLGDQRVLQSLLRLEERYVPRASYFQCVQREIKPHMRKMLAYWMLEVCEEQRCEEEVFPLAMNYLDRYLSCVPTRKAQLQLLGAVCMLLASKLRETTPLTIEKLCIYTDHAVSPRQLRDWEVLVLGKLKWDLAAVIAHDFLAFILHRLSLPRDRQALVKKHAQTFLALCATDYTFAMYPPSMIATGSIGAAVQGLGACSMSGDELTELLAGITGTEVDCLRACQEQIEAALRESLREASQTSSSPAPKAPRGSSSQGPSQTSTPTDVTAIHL
Method in brief: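 Compound dose responses pre-incubated 30 min with enzyme mix in 50 mM HEPES pH 7.5, 10 mM MgCl2, 2 mM TCEP, 0.05% BGG, 0.01% Brij 35. Reaction quenched with EDTA (15 mM final); Eu-anti-phospho-4E-BP1 TR-FRET detection, acceptor/donor ratio. Ki derived by Morrison equation.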

[4] = tested on: OVISE (JCRB1043, CCNE1-amplified); experiment: OVISE EdU incorporation cell proliferation assay (CDK2-dependent); assay type: cell-based; settings: for IC50: cellular assay, read-out: CDK2 OVISE IC50; for FS SKOV-3/OVISE / FS p-H3/OVISE: fold selectivity; for FS p-H3/OVISE: cellular p-H3 IC50 over OVISE IC50; for increased fold-selectivity SKOV-3/OVISE over Comparator C: (+) sign after FS SKOV-3/OVISE; for improvement in CDK2 OVISE cell potency over Comparator C: in brackets after OVISE IC50, Comparator C 5.5 μM
Method in brief: (§1)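 Cells in RPMI/10% FBS dosed with compound (0.5% DMSO final) for 16 h at 37 °C, 5% CO2, then EdU 0.5 μM final for 8 h before fixation and imaging. IC50 from 4-parameter logistic fit of EdU-positive cell fraction versus dose.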

[5] = tested on: SKOV-3 (ATCC HTB-77); experiment: SKOV-3 EdU incorporation cell proliferation assay (CDK4/6-dependent); assay type: cell-based; settings: Homo sapiens, cellular assay, read-out: CDK4/6 SKOV-3 IC50
Method in brief: as §1

[6] = tested on: HCT116 cells; experiment: p-H3 HCT-116 mitotic release cell proliferation assay (cellular CDK1); assay type: cell-based; settings: Homo sapiens, HCT-116; Table O, cellular assay; read-out: CDK1 p-H3 IC50
Method in brief: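 HCT116 cells arrested 16 h with 500 nM nocodazole, then exposed to compound for 4 h at 37 °C (0.1% DMSO). Lysates read by HTRF/FRET with donor and acceptor phospho-Histone H3 (Ser10) antibodies, ≥2 h at room temperature; CDK1 inhibition seen as loss of p-H3 on mitotic release.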

[7] = Table O, enzymatic assay, read-out: CDK2 Ki
[8] = Table O, enzymatic CDK1 Ki over CDK2 Ki
[9] = Table O, enzymatic CDK4 Ki over CDK2 Ki
[10] = Table Q, enzymatic assay, read-out: CDK2 Ki
[11] = Table O, cellular SKOV-3 IC50 over OVISE IC50
[12] = read-out: CDK2 activity / potency (enzymatic assay)

T1 sequence (P06493 whole entry): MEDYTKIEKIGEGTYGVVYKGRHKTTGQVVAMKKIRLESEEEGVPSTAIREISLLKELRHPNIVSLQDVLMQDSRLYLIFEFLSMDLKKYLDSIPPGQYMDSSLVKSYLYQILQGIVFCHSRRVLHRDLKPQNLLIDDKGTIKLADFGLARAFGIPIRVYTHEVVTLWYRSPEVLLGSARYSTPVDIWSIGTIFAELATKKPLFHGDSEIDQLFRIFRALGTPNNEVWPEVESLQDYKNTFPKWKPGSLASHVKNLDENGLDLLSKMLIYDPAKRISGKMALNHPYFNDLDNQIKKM
T1 sequence (P20248 whole entry partner): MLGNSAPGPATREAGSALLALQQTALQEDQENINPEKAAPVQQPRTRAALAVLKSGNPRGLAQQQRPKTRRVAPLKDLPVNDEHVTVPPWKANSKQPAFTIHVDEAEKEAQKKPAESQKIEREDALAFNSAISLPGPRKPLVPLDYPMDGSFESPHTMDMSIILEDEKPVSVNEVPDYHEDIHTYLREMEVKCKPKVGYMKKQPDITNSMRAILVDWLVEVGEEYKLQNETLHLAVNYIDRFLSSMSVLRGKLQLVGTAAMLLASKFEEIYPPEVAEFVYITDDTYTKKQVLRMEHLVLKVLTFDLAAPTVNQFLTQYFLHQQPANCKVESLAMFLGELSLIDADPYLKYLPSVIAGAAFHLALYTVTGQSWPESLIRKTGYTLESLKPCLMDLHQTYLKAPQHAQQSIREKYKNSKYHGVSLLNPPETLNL

SMILES | Ki [1] | improvement in potency against CDK2 (Ki) over Comparator C [2] | Ki [2, 7] | FS CDK1/CDK2 [2, 8] | FS CDK4/CDK2 [2, 9] | increased fold-selectivity CDK4/CDK2 over Comparator C ([2]; Table Q) | Ki [2, 10] | FS CDK1/CDK2 ([2]; Table Q, enzymatic) | FS CDK4/CDK2 ([2]; Table Q, enzymatic) | Ki [3] | IC50 ([4]; Table O) | FS SKOV-3/OVISE [4, 11] | FS p-H3/OVISE ([4]; Table O) | increased fold-selectivity SKOV-3/OVISE over Comparator C ([4]; Table Q) | FS SKOV-3/OVISE ([4]; Table Q, cellular) | improvement in CDK2 OVISE cell potency over Comparator C ([4]; Table Q) | IC50 ([5]; SK-OV-3, Table O) | IC50 ([5]; SK-OV-3, Table Q) | IC50 [6] | Ki [2, 12] | further results
Cc1cncc(Nc2cc([C@H]3CC[C@@H](OC(=O)NC(C)C)C3)[nH]n2)n1 [Example 2M, (1R,3S)-3-(3-((6-methylpyrazin-2-y1)amino)-1H-pyrazol-5-yl)cyclopentyl isopropylcarbamate] | 6.3 nM | 123 fold | 0.26 nM | 24 | 110 | (+) (The (+) sign in Table Q signifies desirable increased fold-selectivity of the exemplary compounds over Comparator C) | 0.26 nM | 24 | 110 | 28 nM | 20 nM | 29 | 0.35 | (+) (The (+) sign in Table Q signifies desirable increased fold-selectivity of the exemplary compounds over Comparator C) | 29 | 275 fold | 580 nM | 580 nM | 7 nM |  | 
COc1cncc(Nc2cc([C@H]3CC[C@@H](OC(=O)NC(C)C)C3)[nH]n2)n1 [Example 2N, (1R,3S)-3-(3-((6-methoxypyrazin-2-yl)amino)-1H-pyrazol-5-yl)cyclopenty1 isopropylcarbamate] | 3.7 nM | 65 fold | 0.49 nM | 7.6 | 53 | (+) (The (+) sign in Table Q signifies desirable increased fold-selectivity of the exemplary compounds over Comparator C) | 0.49 nM | 7.6 | 53 | 26 nM | 29 nM | 41 | 0.38 | (+) (The (+) sign in Table Q signifies desirable increased fold-selectivity of the exemplary compounds over Comparator C) | 41 | 190 fold | 1200 nM | 1200 nM | 11 nM |  | 
Cc1nccc(Nc2cc([C@H]3CC[C@@H](OC(=O)NC(C)C)C3)[nH]n2)n1 [Example 2O, (1R,3S)-3-(3-((2-methylpyrimidin-4-yl)amino)-1H-pyrazol-5-yl)cyclopenty1 isopropylcarbamate] | 24 nM | 37 fold | 0.87 nM | 28 | 290 | (+) (The (+) sign in Table Q signifies desirable increased fold-selectivity of the exemplary compounds over Comparator C) | 0.87 nM | 28 | 290 | 250 nM | 70 nM | 56 | 0.31 | (+) (The (+) sign in Table Q signifies desirable increased fold-selectivity of the exemplary compounds over Comparator C) | 56 | 78.6 fold | 3900 nM | 3900 nM | 22 nM |  | 
CC(C)NC(=O)O[C@@H]1CC[C@H](c2cc(Nc3cncc(C(F)(F)F)n3)n[nH]2)C1 [Example 2R, (1R,3S)-3-(3-((6-(trifluoromethyl)pyrazin-2-yl)amino)-1H-pyrazol-5-yl)cyclopentyl isopropylcarbamate] | 0.4 nM | 320 fold | < 0.1 nM | 6.3 | 140 | (+) (The (+) sign in Table Q signifies desirable increased fold-selectivity of the exemplary compounds over Comparator C) | < 0.1 nM | 6.3 | 140 | 9 nM | 5.6 nM | 30 | 0.63 | (+) (The (+) sign in Table Q signifies desirable increased fold-selectivity of the exemplary compounds over Comparator C) | 30 | 982 fold | 170 nM | 170 nM | 3.5 nM | ≤ 1 nM | 
Cc1nccnc1Nc1cc([C@H]2CC[C@@H](OC(=O)NC(C)C)C2)[nH]n1 [Example 2T, (1R,3S)-3-(3-((3-methylpyrazin-2-yl)amino)-1H-pyrazol-5-yl)cyclopentyl isopropylcarbamate] | 64 nM | 37 fold | 0.86 nM | 74 | 170 | (+) (The (+) sign in Table Q signifies desirable increased fold-selectivity of the exemplary compounds over Comparator C) | 0.86 nM | 74 | 170 | 150 nM | 52 nM | 29 | 2.3 | (+) (The (+) sign in Table Q signifies desirable increased fold-selectivity of the exemplary compounds over Comparator C) | 29 | 106 fold | 1500 nM | 1500 nM | 120 nM | ≤ 1 nM | increased fold-selectivity CDK1/CDK2 over Comparator C ([2]; Table Q): (+) (The (+) sign in Table Q signifies desirable increased fold-selectivity of the exemplary compounds over Comparator C)
Cc1cnc(Nc2cc([C@H]3CC[C@@H](OC(=O)NC(C)C)C3)[nH]n2)c(C)n1 [Example 2V, (1R,3S)-3-(3-((3,5-dimethylpyrazin-2-yl)amino)-1H-pyrazol-5-y1)cyclopentyl isopropylcarbamate] | 36 nM | 35 fold | 0.92 nM | 39 | 280 | (+) (The (+) sign in Table Q signifies desirable increased fold-selectivity of the exemplary compounds over Comparator C) | 0.92 nM | 39 | 280 | 260 nM | 110 nM | 23 | 0.88 | (+) (The (+) sign in Table Q signifies desirable increased fold-selectivity of the exemplary compounds over Comparator C) | 23 | 50 fold | 2500 nM | 2500 nM | 97 nM | ≤ 1 nM | increased fold-selectivity CDK1/CDK2 over Comparator C ([2]; Table Q): (+) (The (+) sign in Table Q signifies desirable increased fold-selectivity of the exemplary compounds over Comparator C)
